Experimental data taken from paper PMC9898036, “VIP152 is a selective CDK9 inhibitor with pre-clinical in vitro and in vivo efficacy in chronic lymphocytic leukemia” (Leukemia, 2022).
Where two headings read alike, the source gives them in different places.

What was measured:
Assay in all cases: DiscoverX KINOMEscan kinase profiling (468 assays)
Format in all cases: binding
human kinome [1] = target: human kinome (Homo sapiens, UniProt O00238); conditions: BMPR1B; 100 nM; read-out: Percent Control
Description: (§1) Kinomescan Kinase Profiling Assay
(§2) Kinomescan Assay was performed at DiscoverRX and described in Fabian, et al. 2005, Nat.
(§3) Biotechnol. In brief, kinases were produced and subsequently tagged with DNA for qPCR detection.
(§4) Streptavidin-coated magnetic beads were bound to biotinylated kinase ligands to serve as a solid support.
(§5) VIP152 was dissolved in DMSO and tested across a 10 serial threefold dilution set and compared to a test
(§6) compound and a DMSO control.
(§7) Kinome map was produced via TreeSpot
(§8) Analysis from DiscoverRX. […]

human kinome [2] = target: human kinome (Homo sapiens, UniProt O00506); conditions: kinase YSK1 (Entrez STK25); compound concentration 1000 nM; read-out: Percent Control
Description: as §1, §2, §3, §4, §5, §6, §7, §8

human kinome [3] = target: human kinome (Homo sapiens, UniProt O14733); conditions: MKK7 (Entrez MAP2K7); 100 nM; read-out: Percent Control
Description: as §1, §2, §3, §4, §5, §6, §7, §8

human kinome [4] = target: human kinome (Homo sapiens, UniProt O43293); conditions: DAPK3; 100 nM; read-out: Percent Control
Description: as §1, §2, §3, §4, §5, §6, §7, §8

human kinome [5] = target: human kinome (Homo sapiens, UniProt P04629); conditions: kinase TRKA (Entrez NTRK1); compound concentration 1000 nM; read-out: Percent Control
Description: as §1, §2, §3, §4, §5, §6, §7, §8

human kinome [6] = target: human kinome (Homo sapiens, UniProt P10721, V559D); conditions: KIT(V559D); 100 nM; read-out: Percent Control
Description: as §1, §2, §3, §4, §5, §6, §7, §8

human kinome [7] = target: human kinome (Homo sapiens, UniProt P17948); conditions: FLT1; 100 nM; read-out: Percent Control
Description: as §1, §2, §3, §4, §5, §6, §7, §8

human kinome [8] = target: human kinome (Homo sapiens, UniProt P22455); conditions: FGFR4; 100 nM; read-out: Percent Control
Description: as §1, §2, §3, §4, §5, §6, §7, §8

human kinome [9] = target: human kinome (Homo sapiens, UniProt P22607, G697C); conditions: FGFR3(G697C); 100 nM; read-out: Percent Control
Description: as §1, §2, §3, §4, §5, §6, §7, §8

human kinome [10] = target: human kinome (Homo sapiens, UniProt P23458); conditions: 100 nM, read-out: Percent Control
Description: as §1, §2, §3, §4, §5, §6, §7, §8

human kinome [11] = target: human kinome (Homo sapiens, UniProt P29322); conditions: EPHA8; 100 nM; read-out: Percent Control
Description: as §1, §2, §3, §4, §5, §6, §7, §8

human kinome [12] = target: human kinome (Homo sapiens, UniProt P29376); conditions: LTK; 100 nM; read-out: Percent Control
Description: as §1, §2, §3, §4, §5, §6, §7, §8

human kinome [13] = target: human kinome (Homo sapiens, UniProt P29597); conditions: compound concentration 1000 nM, read-out: Percent Control
Description: as §1, §2, §3, §4, §5, §6, §7, §8

human kinome [14] = target: human kinome (Homo sapiens, UniProt P41743); conditions: read-out: Percent Control
Description: as §1, §2, §3, §4, §5, §6, §7, §8

human kinome [15] = target: human kinome (Homo sapiens, UniProt P43403); conditions: kinase ZAP70 (Entrez ZAP70); compound concentration 1000 nM; read-out: Percent Control
Description: as §1, §2, §3, §4, §5, §6, §7, §8

human kinome [16] = target: human kinome (Homo sapiens, UniProt P54646); conditions: AMPK-alpha2 (Entrez PRKAA2); 100 nM; read-out: Percent Control
Description: as §1, §2, §3, §4, §5, §6, §7, §8

human kinome [17] = target: human kinome (Homo sapiens, UniProt P80192); conditions: MLK1 (Entrez MAP3K9); 100 nM; read-out: Percent Control
Description: as §1, §2, §3, §4, §5, §6, §7, §8

human kinome [18] = target: human kinome (Homo sapiens, UniProt Q13627); conditions: DYRK1A; 100 nM; read-out: Percent Control
Description: as §1, §2, §3, §4, §5, §6, §7, §8

human kinome [19] = target: human kinome (Homo sapiens, UniProt Q15375); conditions: EPHA7; 100 nM; read-out: Percent Control
Description: as §1, §2, §3, §4, §5, §6, §7, §8

human kinome [20] = target: human kinome (Homo sapiens, UniProt Q16620); conditions: kinase TRKB (Entrez NTRK2); compound concentration 1000 nM; read-out: Percent Control
Description: as §1, §2, §3, §4, §5, §6, §7, §8

human kinome [21] = target: human kinome (Homo sapiens, UniProt Q16816); conditions: read-out: Percent Control
Description: as §1, §2, §3, §4, §5, §6, §7, §8

human kinome [22] = target: human kinome (Homo sapiens, UniProt Q5VT25); conditions: MRCKA (Entrez CDC42BPA); 100 nM; read-out: Percent Control
Description: as §1, §2, §3, §4, §5, §6, §7, §8

human kinome [23] = target: human kinome (Homo sapiens, UniProt Q6XUX3); conditions: kinase RIPK5 (Entrez DSTYK); compound concentration 1000 nM; read-out: Percent Control
Description: as §1, §2, §3, §4, §5, §6, §7, §8

human kinome [24] = target: human kinome (Homo sapiens, UniProt Q8NFD2); conditions: ANKK1; 100 nM; read-out: Percent Control
Description: as §1, §2, §3, §4, §5, §6, §7, §8

human kinome [25] = target: human kinome (Homo sapiens, UniProt Q8WXR4); conditions: read-out: Percent Control
Description: as §1, §2, §3, §4, §5, §6, §7, §8

human kinome [26] = target: human kinome (Homo sapiens, UniProt Q92630); conditions: DYRK2; 100 nM; read-out: Percent Control
Description: as §1, §2, §3, §4, §5, §6, §7, §8

human kinome [27] = target: human kinome (Homo sapiens, UniProt Q9H093); conditions: kinase SNARK (Entrez NUAK2); compound concentration 1000 nM; read-out: Percent Control
Description: as §1, §2, §3, §4, §5, §6, §7, §8

human kinome [28] = target: human kinome (Homo sapiens, UniProt Q9P286); conditions: read-out: Percent Control
Description: as §1, §2, §3, §4, §5, §6, §7, §8

human kinome [29] = target: human kinome (Homo sapiens, UniProt Q9UPE1); conditions: kinase SRPK3 (Entrez SRPK3); compound concentration 1000 nM; read-out: Percent Control
Description: as §1, §2, §3, §4, §5, §6, §7, §8

human kinome [30] = target: human kinome (Homo sapiens, UniProt Q9UQ88); conditions: CDC2L2; 100 nM; read-out: Percent Control
Description: as §1, §2, §3, §4, §5, §6, §7, §8

Sequence of human kinome (Homo sapiens, UniProt P23458) (P23458 whole entry): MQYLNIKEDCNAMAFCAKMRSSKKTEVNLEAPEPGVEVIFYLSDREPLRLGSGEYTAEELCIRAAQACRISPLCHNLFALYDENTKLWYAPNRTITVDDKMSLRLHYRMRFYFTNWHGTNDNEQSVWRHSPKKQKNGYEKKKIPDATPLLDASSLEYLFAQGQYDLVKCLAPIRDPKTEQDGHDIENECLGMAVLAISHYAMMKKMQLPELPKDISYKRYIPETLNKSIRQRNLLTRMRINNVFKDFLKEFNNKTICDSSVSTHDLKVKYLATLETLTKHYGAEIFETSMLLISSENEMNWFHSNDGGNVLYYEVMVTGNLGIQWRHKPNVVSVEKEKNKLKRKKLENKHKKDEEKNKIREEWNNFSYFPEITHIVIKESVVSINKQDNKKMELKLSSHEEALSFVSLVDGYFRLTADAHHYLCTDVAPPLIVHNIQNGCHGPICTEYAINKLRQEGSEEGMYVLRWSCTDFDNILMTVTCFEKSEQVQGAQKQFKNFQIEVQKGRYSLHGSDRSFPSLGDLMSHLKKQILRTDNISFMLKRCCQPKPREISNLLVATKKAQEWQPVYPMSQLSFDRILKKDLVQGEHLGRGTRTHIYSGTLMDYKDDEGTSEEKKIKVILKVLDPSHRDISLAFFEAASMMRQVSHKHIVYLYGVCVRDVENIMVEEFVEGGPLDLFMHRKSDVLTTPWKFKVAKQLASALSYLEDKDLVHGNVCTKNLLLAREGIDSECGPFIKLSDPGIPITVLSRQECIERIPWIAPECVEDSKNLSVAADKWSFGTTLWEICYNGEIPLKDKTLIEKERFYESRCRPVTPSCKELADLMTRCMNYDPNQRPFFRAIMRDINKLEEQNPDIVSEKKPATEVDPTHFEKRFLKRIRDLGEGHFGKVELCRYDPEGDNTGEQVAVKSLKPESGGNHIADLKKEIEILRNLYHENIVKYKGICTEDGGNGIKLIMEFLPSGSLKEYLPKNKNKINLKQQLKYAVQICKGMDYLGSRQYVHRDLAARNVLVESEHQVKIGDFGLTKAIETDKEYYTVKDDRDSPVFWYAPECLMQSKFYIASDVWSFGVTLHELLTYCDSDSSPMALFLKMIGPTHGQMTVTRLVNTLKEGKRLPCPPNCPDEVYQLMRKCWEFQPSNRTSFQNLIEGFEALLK
Sequence of human kinome (Homo sapiens, UniProt Q16816) (Q16816 whole entry): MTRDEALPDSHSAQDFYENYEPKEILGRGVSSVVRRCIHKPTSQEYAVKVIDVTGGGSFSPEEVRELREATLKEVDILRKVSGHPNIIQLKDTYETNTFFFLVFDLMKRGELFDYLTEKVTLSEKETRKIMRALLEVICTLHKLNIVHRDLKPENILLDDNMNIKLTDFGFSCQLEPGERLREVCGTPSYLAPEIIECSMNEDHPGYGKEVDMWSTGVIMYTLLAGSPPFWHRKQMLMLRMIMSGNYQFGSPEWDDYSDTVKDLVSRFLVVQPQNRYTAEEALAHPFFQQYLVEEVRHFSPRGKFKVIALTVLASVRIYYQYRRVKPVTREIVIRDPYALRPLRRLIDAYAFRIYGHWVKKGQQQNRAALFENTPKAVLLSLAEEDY
Sequence of human kinome (Homo sapiens, UniProt Q9P286) (Q9P286 whole entry): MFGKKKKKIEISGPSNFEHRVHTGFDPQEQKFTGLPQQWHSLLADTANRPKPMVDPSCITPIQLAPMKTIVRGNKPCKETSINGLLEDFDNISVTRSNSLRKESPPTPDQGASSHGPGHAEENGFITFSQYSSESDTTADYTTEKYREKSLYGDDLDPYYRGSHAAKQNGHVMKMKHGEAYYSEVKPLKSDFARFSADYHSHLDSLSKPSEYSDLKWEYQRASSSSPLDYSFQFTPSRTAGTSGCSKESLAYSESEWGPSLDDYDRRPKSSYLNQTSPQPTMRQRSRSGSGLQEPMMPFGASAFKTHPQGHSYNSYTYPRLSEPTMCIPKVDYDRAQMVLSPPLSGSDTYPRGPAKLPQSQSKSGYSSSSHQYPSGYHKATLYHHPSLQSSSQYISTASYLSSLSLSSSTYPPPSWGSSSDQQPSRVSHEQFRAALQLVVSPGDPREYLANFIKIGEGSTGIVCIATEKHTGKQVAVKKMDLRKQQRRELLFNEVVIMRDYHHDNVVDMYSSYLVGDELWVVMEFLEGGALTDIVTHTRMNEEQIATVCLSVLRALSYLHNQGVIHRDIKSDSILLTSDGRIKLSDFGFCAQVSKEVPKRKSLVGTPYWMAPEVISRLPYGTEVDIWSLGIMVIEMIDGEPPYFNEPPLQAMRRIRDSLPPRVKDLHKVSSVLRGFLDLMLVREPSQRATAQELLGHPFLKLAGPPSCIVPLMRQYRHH
Sequence of human kinome (Homo sapiens, UniProt Q8WXR4) (Q8WXR4 whole entry): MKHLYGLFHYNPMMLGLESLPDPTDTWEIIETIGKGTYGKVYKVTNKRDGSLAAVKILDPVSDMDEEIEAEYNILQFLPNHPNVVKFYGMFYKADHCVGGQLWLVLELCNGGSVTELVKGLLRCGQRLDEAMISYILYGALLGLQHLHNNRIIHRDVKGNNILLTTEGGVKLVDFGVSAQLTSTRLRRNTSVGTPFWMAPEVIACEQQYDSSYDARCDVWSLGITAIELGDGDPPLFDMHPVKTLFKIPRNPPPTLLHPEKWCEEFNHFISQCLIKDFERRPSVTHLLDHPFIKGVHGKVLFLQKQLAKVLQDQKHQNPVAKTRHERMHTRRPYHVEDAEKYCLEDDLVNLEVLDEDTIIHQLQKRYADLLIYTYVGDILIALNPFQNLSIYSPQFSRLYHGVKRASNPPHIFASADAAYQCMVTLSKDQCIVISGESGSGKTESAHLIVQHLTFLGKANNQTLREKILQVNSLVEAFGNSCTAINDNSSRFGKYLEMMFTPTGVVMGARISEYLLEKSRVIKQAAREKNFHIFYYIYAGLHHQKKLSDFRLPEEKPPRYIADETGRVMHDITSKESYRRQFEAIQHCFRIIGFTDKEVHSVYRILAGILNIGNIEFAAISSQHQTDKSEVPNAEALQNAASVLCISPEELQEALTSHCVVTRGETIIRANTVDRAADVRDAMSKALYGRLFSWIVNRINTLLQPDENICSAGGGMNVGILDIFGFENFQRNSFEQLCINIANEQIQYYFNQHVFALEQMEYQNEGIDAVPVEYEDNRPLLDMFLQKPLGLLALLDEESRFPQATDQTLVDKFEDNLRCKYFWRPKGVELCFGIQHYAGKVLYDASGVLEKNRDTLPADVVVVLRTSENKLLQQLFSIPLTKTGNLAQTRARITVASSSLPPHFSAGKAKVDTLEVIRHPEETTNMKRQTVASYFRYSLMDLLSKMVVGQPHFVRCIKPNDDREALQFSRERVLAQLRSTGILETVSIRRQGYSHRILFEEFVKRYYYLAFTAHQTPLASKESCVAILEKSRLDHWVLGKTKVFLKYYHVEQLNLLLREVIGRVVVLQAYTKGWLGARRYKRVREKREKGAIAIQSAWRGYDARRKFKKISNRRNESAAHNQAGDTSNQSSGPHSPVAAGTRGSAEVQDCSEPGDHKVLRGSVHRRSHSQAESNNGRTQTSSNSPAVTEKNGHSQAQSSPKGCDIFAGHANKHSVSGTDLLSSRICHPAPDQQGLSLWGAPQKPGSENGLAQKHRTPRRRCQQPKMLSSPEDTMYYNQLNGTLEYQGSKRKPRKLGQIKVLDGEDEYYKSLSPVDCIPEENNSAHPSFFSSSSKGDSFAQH
Sequence of human kinome (Homo sapiens, UniProt P41743) (P41743 whole entry): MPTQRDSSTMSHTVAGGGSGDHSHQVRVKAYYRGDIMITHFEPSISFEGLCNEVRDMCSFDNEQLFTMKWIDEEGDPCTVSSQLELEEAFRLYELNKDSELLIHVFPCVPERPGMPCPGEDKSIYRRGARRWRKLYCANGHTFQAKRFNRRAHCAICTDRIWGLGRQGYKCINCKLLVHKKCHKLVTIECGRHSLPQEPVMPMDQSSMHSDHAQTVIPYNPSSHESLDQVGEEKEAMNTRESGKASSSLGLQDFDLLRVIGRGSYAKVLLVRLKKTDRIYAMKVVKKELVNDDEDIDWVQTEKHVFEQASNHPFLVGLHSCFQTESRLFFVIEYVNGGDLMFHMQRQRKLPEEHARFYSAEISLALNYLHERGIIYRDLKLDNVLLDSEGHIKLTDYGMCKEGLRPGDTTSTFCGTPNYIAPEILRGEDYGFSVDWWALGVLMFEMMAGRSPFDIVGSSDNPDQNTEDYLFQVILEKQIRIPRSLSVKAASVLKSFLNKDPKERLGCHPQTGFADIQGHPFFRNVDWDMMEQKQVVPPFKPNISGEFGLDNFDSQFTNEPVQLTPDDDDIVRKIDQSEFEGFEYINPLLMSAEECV
Sequence of human kinome (Homo sapiens, UniProt P22607, G697C) (P22607 23-806 G697C): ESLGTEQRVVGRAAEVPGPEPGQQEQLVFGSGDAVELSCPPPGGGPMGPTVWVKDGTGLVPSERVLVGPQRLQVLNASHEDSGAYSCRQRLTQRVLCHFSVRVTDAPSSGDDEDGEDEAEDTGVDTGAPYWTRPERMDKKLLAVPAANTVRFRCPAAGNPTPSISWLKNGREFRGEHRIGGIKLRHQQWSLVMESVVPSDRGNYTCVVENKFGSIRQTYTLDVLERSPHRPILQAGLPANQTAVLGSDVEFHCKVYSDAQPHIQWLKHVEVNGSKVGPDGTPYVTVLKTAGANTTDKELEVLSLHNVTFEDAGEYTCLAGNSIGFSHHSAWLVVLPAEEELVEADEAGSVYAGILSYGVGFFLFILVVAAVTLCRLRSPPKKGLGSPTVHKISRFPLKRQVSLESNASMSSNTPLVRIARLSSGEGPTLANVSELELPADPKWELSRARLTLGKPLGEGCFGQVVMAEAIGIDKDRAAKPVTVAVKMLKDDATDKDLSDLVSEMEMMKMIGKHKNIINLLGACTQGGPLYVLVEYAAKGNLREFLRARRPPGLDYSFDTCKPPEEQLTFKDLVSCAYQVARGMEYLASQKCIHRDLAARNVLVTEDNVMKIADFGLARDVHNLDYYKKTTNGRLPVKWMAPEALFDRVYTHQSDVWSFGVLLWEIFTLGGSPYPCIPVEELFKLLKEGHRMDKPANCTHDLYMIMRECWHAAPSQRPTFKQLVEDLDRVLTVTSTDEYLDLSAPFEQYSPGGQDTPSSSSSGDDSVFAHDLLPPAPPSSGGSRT

COc1cc(F)ccc1-c1cc(Nc2cc(CS(C)(=N)=O)ccn2)ncc1F (stereo not drawn) [VIP152]
remaining binding at 0.1 µM (human kinome [1]): 95%
remaining binding at 1 µM (human kinome [2]): 100%
remaining binding at 0.1 µM (human kinome [3]): 86%
remaining binding at 0.1 µM (human kinome [4]): 100%
remaining binding at 1 µM (human kinome [5]): 9.8%
remaining binding at 0.1 µM (human kinome [6]): 100%
remaining binding at 0.1 µM (human kinome [7]): 100%
remaining binding at 0.1 µM (human kinome [8]): 100%
remaining binding at 0.1 µM (human kinome [9]): 100%
remaining binding at 0.1 µM (human kinome [10]; JAK1(JH1domain-catalytic)): 87%
remaining binding at 0.1 µM (human kinome [10]; JAK1(JH2domain-pseudokinase)): 100%
remaining binding at 0.1 µM (human kinome [11]): 100%
remaining binding at 0.1 µM (human kinome [12]): 96%
remaining binding at 1 µM (human kinome [13]; kinase TYK2(JH1domain-catalytic) (Entrez TYK2)): 44%
remaining binding at 1 µM (human kinome [13]; kinase TYK2(JH2domain-pseudokinase) (Entrez TYK2)): 4.8%
remaining binding at 0.1 µM (human kinome [14]; PRKCI, 100 nM): 90%
remaining binding at 1 µM (human kinome [14]; kinase PRKCI (Entrez PRKCI), compound concentration 1000 nM): 96%
remaining binding at 1 µM (human kinome [15]): 80%
remaining binding at 0.1 µM (human kinome [16]): 100%
remaining binding at 0.1 µM (human kinome [17]): 100%
remaining binding at 0.1 µM (human kinome [18]): 64%
remaining binding at 0.1 µM (human kinome [19]): 100%
remaining binding at 1 µM (human kinome [20]): 30%
remaining binding at 0.1 µM (human kinome [21]; PHKG1, 100 nM): 97%
remaining binding at 1 µM (human kinome [21]; kinase PHKG1 (Entrez PHKG1), compound concentration 1000 nM): 96%
remaining binding at 0.1 µM (human kinome [22]): 100%
remaining binding at 1 µM (human kinome [23]): 42%
remaining binding at 0.1 µM (human kinome [24]): 100%
remaining binding at 0.1 µM (human kinome [25]; MYO3B, 100 nM): 100%
remaining binding at 1 µM (human kinome [25]; kinase MYO3B (Entrez MYO3B), compound concentration 1000 nM): 68%
remaining binding at 0.1 µM (human kinome [26]): 99%
remaining binding at 1 µM (human kinome [27]): 78%
remaining binding at 0.1 µM (human kinome [28]; PAK7, 100 nM): 100%
remaining binding at 1 µM (human kinome [28]; kinase PAK7 (Entrez PAK7), compound concentration 1000 nM): 78%
remaining binding at 1 µM (human kinome [29]): 68%
remaining binding at 0.1 µM (human kinome [30]): 100%
